The record followed here is ChEMBL document CHEMBL1201862, “PubChem BioAssay data set” (2004).

Active and inactive are the calls of the source.

Assay [1] has as its target Disintegrin and metalloproteinase domain-containing protein 17 (Homo sapiens, UniProt P78536). Put plainly: inhibition of ADAM17 substrate cleavage – biochemical, quenched FRET substrate, counter-screen for ADAM10 exosite inhibitor project, dose response (AID 743253).
The nature of assay [2]: potency of ADAM10 substrate cleavage blockers – biochemical, QFRET, dose response (AID 743254).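 Also: ADAM10 enzyme with the DM2 quenched FRET peptide as substrate; EDANS fluorescence gain as the protease cuts the substrate; inhibitor potency against ADAM10 proteolytic activity.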
In assay [3] the target is 72 kDa type IV collagenase (Homo sapiens, UniProt P08253). Kind of assay: Dose Response validation of uHTS RPN11 inhibitor hits using a MMP-2 Fluorescence assay. The assay is classed as functional.
The target of another assay is Prothrombin (Bos taurus, UniProt P00735). Put plainly: thrombin protease inhibitors – biochemical, fluorescence polarization, uHTS hits, dose response (AID 602369). The assay is classed as functional. Background: In fluorescence polarisation assays a small probe gives low polarisation when free and higher when bound to something large.
Assay [4] deals with 26S proteasome non-ATPase regulatory subunit 14 (Homo sapiens, UniProt O00487). Kind of assay: inhibition of proteasome subunit RPN11 – biochemical, fluorescence polarization, uHTS hits, confirmation (AID 602368). It is filed as functional.
The nature of assay [5]: NIH-3T3 fibroblast cytotoxicity, dose response, cytotoxicity control, cell-based, fluorescence, Alamar Blue, secondary assay (AID 2327).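 Also: NIH-3T3 mouse fibroblasts cultured with fluconazole at 8 µg/mL.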 The assay is classed as functional. Background: The colour change of resazurin is a common sign of viable cells or microbes.
Assay [6] in a line: fluconazole-exposed Candida albicans growth modulators – fluorescence, retest, confirmation (AID 2467). The assay is classed as functional, cell-based.
For the next assay, the system named is INS1. Put plainly: INS-1E survival protection against cytokine death – cell-based, luminescence, retest, dose response (AID 449756).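 Also: cell death triggered by IL-1 beta plus TNF-alpha plus IFN-gamma mixture; protective hits raise ATP signal compared with cytokine alone wells.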 The assay is classed as functional. Conditions: Rattus norvegicus.
For assay [7], the target named is Heat shock protein HSP 90-alpha (Homo sapiens, UniProt P07900). It is filed as functional, organism-based.
Assay [8] in a line: cells. It is filed as functional, cell-based.
A short description of assay [9]: cells. The assay is classed as functional, cell-based. This is another data set of the same source.
Assay [10] deals with Streptococcus sp. 'group A'. Put plainly: Streptococcus pyogenes SK(-)GAS viability under kanamycin – luminescence, BacTiterGlo, confirmation, counter-screen for streptokinase expression inhibitor project, dose response (AID 1900). The assay is classed as functional, organism-based. Background: Counterscreens check selectivity or assay interference.
In a further assay the test system is Streptococcus. Put plainly: GAS UMAA2166 growth inhibition – luminescence, BacTiterGlo, counter-screen for streptokinase expression inhibitor project, dose response (AID 1915).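 Also: potency for reduction of bacterial viability or growth.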 The assay is classed as functional, organism-based.
For the next assay, the target named is T1, Streptokinase A (Streptococcus pyogenes serotype M1, UniProt P10520).
T1 sequence (P10520 whole entry): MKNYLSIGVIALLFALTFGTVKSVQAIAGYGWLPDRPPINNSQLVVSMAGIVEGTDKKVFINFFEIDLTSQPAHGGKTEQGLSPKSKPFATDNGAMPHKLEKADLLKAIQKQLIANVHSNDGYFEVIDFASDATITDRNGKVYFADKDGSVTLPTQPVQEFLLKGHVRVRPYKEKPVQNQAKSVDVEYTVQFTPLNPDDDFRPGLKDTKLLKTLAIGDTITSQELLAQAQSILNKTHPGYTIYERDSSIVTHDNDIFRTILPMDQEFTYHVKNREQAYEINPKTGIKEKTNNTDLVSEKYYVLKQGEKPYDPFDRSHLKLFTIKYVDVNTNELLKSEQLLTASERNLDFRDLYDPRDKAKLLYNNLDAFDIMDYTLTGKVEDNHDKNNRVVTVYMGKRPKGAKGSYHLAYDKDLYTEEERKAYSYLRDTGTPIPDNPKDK
Kind of assay: viability-normalized secreted streptokinase activity reduction – plasminogen activation absorbance, OD405, dose response (AID 1914).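 Also: secreted streptokinase activity via plasminogen activation per viability signal from cell pellet.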 It is filed as functional, Streptococcus pyogenes M1 GAS.

Assay [11] deals with T2, Rac GTPase-activating protein 1 (Homo sapiens, UniProt Q9H0H5).
T2 sequence (Q9H0H5 whole entry): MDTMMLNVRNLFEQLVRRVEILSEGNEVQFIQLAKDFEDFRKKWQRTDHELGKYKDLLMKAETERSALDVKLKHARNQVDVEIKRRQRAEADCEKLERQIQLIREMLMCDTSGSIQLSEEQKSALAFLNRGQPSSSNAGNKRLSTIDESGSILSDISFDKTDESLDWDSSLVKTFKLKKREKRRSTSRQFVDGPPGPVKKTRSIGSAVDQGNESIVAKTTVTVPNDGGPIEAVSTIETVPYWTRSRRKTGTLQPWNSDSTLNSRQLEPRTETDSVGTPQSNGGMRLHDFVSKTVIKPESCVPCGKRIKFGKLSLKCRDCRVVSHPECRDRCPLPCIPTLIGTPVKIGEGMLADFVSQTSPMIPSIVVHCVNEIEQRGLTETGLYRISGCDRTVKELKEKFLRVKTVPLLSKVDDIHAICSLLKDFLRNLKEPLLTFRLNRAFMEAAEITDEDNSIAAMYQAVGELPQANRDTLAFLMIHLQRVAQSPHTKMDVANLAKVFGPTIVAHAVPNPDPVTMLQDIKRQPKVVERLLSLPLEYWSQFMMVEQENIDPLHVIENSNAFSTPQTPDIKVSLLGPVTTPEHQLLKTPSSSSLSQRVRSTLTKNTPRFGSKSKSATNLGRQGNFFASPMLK
Kind of assay: blockers of MgcRacGAP-driven Rac1 GTP hydrolysis – biochemical, ADP Hunter fluorescence, primary and confirmatory, confirmation (AID 624330). The assay is classed as functional.

The subject of a further assay is H4. Kind of assay: Luminescence Cell-Based Dose Response HTS to Identify Activators of 5'UTR Stem-Loop Driven Prion Protein mRNA Translation in H4 Neuroglioblastoma Cells. [Related pubchem assays: 1829 (Project Summary), 1814 (Primary HTS)]. It is filed as functional. Conditions: Homo sapiens.
For a further assay, the target named is Cytochrome P450 2D6 (Homo sapiens, UniProt P10635).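 Also: CYP2D6 member of a cytochrome P450 panel assay.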
Assay [12] in a line: Luminescence Cell-Based Dose Response HTS to Identify Activators of Luciferase Translation or Activity in H4 […] Cells. [Related pubchem assays: 1829 (Project Summary), 1814 (Primary HTS)]. The assay is classed as functional.
Assay [13] is described as follows: Luminescence Cell-Based Dose Confirmation HTS to Identify Activators of 5'UTR Stem-Loop Driven Alpha-Synuclein mRNA Translation in H4 Neuroglioblastoma Cells. [Related pubchem assays: 1829 (Project Summary), 1814 (Primary HTS)]. It is filed as functional.

26S proteasome non-ATPase regulatory subunit 14, sequence (O00487 whole entry): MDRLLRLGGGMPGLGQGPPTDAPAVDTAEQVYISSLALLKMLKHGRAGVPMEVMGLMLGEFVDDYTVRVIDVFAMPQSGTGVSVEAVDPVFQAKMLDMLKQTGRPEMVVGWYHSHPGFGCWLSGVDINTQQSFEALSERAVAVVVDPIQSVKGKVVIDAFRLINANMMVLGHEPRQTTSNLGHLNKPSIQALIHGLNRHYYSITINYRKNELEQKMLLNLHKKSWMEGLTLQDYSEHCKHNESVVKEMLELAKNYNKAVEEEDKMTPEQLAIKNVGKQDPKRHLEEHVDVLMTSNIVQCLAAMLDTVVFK
72 kDa type IV collagenase, sequence (P08253 whole entry): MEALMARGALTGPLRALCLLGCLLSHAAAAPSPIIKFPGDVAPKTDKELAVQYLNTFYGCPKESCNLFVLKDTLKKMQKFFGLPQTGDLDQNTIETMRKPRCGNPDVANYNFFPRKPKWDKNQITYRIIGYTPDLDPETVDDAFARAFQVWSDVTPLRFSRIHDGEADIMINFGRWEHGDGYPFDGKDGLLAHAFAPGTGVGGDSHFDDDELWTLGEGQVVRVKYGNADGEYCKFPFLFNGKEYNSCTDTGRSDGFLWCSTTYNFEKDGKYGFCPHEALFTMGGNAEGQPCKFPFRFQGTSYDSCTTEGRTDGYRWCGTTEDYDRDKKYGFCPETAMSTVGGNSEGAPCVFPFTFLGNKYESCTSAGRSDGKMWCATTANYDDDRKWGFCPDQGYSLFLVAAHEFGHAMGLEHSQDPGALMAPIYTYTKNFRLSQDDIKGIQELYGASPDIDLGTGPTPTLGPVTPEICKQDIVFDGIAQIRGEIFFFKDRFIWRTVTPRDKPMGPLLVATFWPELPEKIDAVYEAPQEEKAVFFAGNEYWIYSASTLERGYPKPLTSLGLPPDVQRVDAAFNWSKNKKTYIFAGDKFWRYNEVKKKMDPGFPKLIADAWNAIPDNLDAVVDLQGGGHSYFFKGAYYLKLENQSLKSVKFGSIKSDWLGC
Disintegrin and metalloproteinase domain-containing protein 17, sequence (P78536 whole entry, the tested form may be a part): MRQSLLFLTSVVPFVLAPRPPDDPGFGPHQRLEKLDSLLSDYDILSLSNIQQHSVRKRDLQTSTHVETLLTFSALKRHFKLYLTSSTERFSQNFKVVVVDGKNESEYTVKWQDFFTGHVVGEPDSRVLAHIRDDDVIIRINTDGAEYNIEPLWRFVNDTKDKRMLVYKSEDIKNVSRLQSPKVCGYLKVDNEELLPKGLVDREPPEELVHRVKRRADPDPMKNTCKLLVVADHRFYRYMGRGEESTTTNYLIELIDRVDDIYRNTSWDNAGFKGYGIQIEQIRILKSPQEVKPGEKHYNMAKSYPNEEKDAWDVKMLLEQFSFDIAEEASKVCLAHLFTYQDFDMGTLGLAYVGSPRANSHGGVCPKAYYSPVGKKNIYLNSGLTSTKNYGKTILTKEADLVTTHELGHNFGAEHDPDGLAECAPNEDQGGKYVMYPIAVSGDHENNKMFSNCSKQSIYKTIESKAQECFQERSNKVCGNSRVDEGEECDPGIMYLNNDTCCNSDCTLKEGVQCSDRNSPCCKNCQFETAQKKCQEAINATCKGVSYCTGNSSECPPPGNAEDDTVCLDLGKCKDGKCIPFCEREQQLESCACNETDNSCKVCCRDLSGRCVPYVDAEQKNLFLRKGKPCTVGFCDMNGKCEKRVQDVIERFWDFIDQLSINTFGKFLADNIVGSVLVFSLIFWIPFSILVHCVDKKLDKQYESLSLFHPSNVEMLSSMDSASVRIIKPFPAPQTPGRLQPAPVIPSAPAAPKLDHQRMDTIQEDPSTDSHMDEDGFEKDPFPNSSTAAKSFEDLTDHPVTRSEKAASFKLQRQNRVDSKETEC
Cytochrome P450 2D6, sequence (P10635 whole entry): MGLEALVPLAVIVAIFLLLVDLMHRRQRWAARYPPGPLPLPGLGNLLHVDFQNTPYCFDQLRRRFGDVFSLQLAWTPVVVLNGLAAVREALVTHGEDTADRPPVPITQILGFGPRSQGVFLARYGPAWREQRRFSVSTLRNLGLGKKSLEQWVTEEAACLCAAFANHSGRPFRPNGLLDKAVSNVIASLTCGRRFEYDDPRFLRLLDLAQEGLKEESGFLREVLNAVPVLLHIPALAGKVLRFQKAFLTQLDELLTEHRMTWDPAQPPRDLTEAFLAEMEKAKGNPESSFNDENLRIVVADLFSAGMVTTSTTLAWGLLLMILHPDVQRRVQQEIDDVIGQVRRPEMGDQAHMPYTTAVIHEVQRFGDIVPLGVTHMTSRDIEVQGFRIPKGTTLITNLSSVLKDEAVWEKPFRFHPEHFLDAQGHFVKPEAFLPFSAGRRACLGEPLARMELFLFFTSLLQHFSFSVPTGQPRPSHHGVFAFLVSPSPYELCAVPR

`C#CCN(C[C@@H]1[C@@H](OC(=O)NCc2ccc(OC)c(OC)c2)[C@@H](OC(=O)NCc2ccc(OC)c(OC)c2)Cn2c(=O)n(CCCCCC)c(=O)n21)S(=O)(=O)c1ccc(C)cc1`: the IC50 in [1] and in assay [2] was > 69.5 µM (inactive) each time.

Take `CCN(CC)c1ccc(/C=N/NC(=O)c2cccc(S(=O)(=O)Nc3ccccc3OC)c2)cc1`: the figures for the IC50 (in assay [3]; at Prothrombin; in assay [4]) were > 100 µM (inactive), 33.2 µM (active) and 26.3 µM (active), respectively.

Take `N=C1/C(=C\c2ccc(-c3cccc(Cl)c3)o2)C(=O)N=C2SC=C(c3ccccc3)N12`: the IC50 (commonly the concentration at which inhibition is half-maximal) in [3] is > 100 µM (inactive); on Prothrombin it was 52.9 µM (active); in assay [4], 27.8 µM (active).

With `COc1ccc(C(=O)NC(=S)NNC(=O)c2cnccn2)cc1`, the values for the concentration for a half-maximal effect (EC50) in assay [5] and in assay [6] were 9.88 µM (active) and 2.02 µM (active), respectively. Further, the half-maximal activity concentration (AC50) (as a rule, the concentration at which the activity in the assay is half-maximal) was 0.933 µM (active) in the assay on INS1 and 2.71 µM (active) in assay [7].

`CCOC(=O)c1ccc(N2CN(CCc3ccccc3)CN=C2S)cc1`: in the assay “cells [8]”, the IC50 is > 29.9 µM (inactive). For the same molecule, the EC50 (in general, the concentration at which the effect is half-maximal) in “cells [9]” is > 29.9 µM (inactive).

With `Oc1cccc(/C=N/N(Cc2ccccc2)c2ccccc2)c1`, the results for the EC50 (in assay [10]; in the assay with Streptococcus; on Streptokinase A) were 6.42 µM (active), 7.85 µM (active) and > 150 µM (not active), respectively. In addition, the IC50 in [1] is > 69.5 µM (inactive); in [2] it was > 7.73 µM (active).

As for `COc1cc(/C=C2/C(=O)NN(c3ccc(Cl)cc3)C2=O)cc(Br)c1O`, the IC50 in assay [3] was 54.8 µM (active); in assay [11] it was 103 µM (active); on Prothrombin, 60.6 µM (active); in [4], 14.5 µM (active).

For `NC(=Nc1cccc2ccccc12)Nc1nc(O)c2c(n1)CCC2`, the IC50 in assay [3] was > 100 µM (inactive); at Prothrombin it was > 100 µM (inactive); in [4], 24.3 µM (active). Further, the EC50 (in the assay on H4; in [12]; in [13]) was > 120 µM (not active) throughout. In addition, at Cytochrome P450 2D6, the AC50 is 11.2 µM (inconclusive).
